Results as given in PMC4019636, “Rational Design of Berberine-Based FtsZ Inhibitors with Broad-Spectrum Antibacterial Activity” (PLoS ONE, 2014).

Columns and labels:
S. aureus FtsZ [1] = biological target: T1, S. aureus FtsZ (Staphylococcus aureus, UniProt P0A031); experiment: Light scattering assay of FtsZ polymerization; assay type: biochemical; details: for inhibition of polymerization in the presence of Triton X-100: 0.01% Triton X-100, berberine 200 and 500 µM, compound 2 10 and 25 µM
T1 construct: made in house; host or cells: E. coli BL21(DE3)
T1 sequence (P0A031 1-390): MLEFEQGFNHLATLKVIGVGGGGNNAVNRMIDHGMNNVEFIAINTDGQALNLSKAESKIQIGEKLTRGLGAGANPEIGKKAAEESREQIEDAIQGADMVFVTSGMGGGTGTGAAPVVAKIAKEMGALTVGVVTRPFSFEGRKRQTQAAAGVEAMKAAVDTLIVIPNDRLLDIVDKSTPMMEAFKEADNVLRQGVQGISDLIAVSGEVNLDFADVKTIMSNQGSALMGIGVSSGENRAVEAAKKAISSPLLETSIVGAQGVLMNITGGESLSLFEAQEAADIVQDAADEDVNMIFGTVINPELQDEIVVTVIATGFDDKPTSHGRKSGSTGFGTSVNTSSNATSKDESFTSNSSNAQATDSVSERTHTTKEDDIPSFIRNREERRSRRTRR
Protocol: (§1) E. coli BL21(DE3) cells were transformed with the pRSET-A-S vector carrying S. aureus FtsZ with a 6-histidine tag attached at its N-terminus under the control of a T7 promoter. […] When the OD600 reached 0.8, protein expression was induced with 0.4 mM isopropyl-β-D-thiogalactopyranoside (IPTG) for 4 h. Cells were harvested by centrifugation at 9000 rpm for 20 min at 4°C. The cell pellet was resuspended in 20 mL of solubilization buffer (50 mM Tris-HCl, 150 mM NaCl, 1 mM PMSF and 1 mM EDTA, pH 7.4) and then lysed with 1 mg/mL of lysozyme. The mixture was incubated for 1 h on ice. The cells were disrupted by sonication and the crude lysate obtained was centrifuged at 13,000 rpm for 1 h at 4°C. The supernatant containing 6-histidine tagged S. aureus FtsZ was collected and loaded onto a nickel charged HiTrap chelating column pre-equilibrated with starting buffer (20 mM sodium phosphate buffer, 0.5 M NaCl, pH 7.4). The column was then washed with 8 column volumes of the starting buffer to remove the unbound proteins, and the histidine-tagged enzyme was eluted by a linear gradient of 0−0.2 M imidazole. Fractions containing S. aureus FtsZ were pooled, buffer-exchanged with 20 mM NH4HCO3 (pH 8.0) at 4°C, lyophilized, and stored at −20°C. A stock solution of S. aureus FtsZ for the subsequent bioassay was prepared from the lyophilized powder.
The light scattering assay was performed using a protocol adapted from the literature. The polymerization and depolymerization of recombinant S. aureus FtsZ was measured using 90° light scattering in a thermostatically (37°C) controlled fluorescence spectrometer (Perkin Elmer, USA). Both excitation and emission wavelengths were set to 600 nm with a slit width of 2.5 nm. S. aureus FtsZ (6 µM) in 50 mM of MOPS buffer (pH 6.5) was incubated with vehicle (1% DMSO) or different concentrations of the test compound for 10 min at 25°C. 50 mM KCl and 10 mM MgCl2 were then added to establish a baseline. After 8 min, a final concentration of 1 mM GTP was added at the last fraction and the increase in light scattering was measured for an additional 2000s. The rate and extent of polymerization were measured. Appropriate blanks were subtracted from all experimental data. Moreover, in order to rule out unselective inhibition by formation of aggregates, control experiments with 0.01% (v/v) Triton X-100 from a freshly prepared 1% (v/v) stock solution were performed for berberine and compound 2 [40], [41]. Reported results are the average of three independent experiments.

S. aureus FtsZ [2] = biological target: T1, S. aureus FtsZ; experiment: Transmission electron microscopy of FtsZ polymers; assay type: biochemical; details: FtsZ 12 µM, TEM
Protocol: as §1, with “powder. […]” for “powder.”

[3] = test system: B. subtilis strain 168 cells; experiment: Bacterial morphology and membrane staining studies; assay type: cell-based; details: 4 µM compound
Protocol: The B. subtilis strain 168 cells were grown in LB medium. The cultures at an A600 of 0.01 from an overnight culture were inoculated in the same medium containing different concentrations of the test compounds and grown at 37°C for 4 h. The cells for morphology studies were harvested and resuspended in 100 µL of PBS (phosphate buffered saline) buffer containing 0.25% agarose. For membrane staining, the B. subtilis cells were further incubated with 1.6 µM of FM 4–64 for an additional 30 min at 37°C without shaking before harvested and resuspended in 100 µL PBS buffer containing 0.25% agarose. 10 µL of the suspension mixture were then placed on a microscopic slide pretreated with 0.1% (w/v) poly-L-lysine and the morphology of the bacterial cells was observed under a phase-contrast optical microscope at 40× magnification. The images were captured using an Olympus Bio Imaging Navigator FSX 100 microscope.

[4] = test system: GFP-tagged FtsZ in E. coli JM109 WM647; experiment: Z-ring visualization in E. coli cells; assay type: cell-based; details: 48 µM compound, 4 h at 37°C
Protocol: A culture of E. coli JM109 WM647 containing the IPTG-inducible plasmid for the overexpression of green fluorescence protein (GFP)-tagged FtsZ was grown in LB medium supplemented with 30 µg/mL of chloramphenicol. After overnight incubation, a sample of the culture was diluted to 1% in the LB medium containing different concentrations of the test compound and 40 µM of IPTG. After 4 h incubation at 37°C, the E. coli cells were fixed, harvested and resuspended in PBS buffer containing 0.25% of agarose. 10 µL of sample mixture were added to a pretreated microscopic slide with 0.1% (w/v) poly-L-lysine and visualized using a fluorescence microscope at 60× oil immersion magnification with a standard FITC filter set. The images were captured using an Olympus Bio Imaging Navigator FSX 100 microscope.

What does the source list for `COc1ccc2cc3[n+](cc2c1OC)CCc1cc2c(cc1-3)OCO2` [Berberine, Berberine chloride]?
inhibition at 200 µM (S. aureus FtsZ [1]; 200 µM compound, FtsZ 6 µM, 1 mM GTP, light scattering): ~30%; inhibition of polymerization in the presence of Triton X-100 (S. aureus FtsZ [1]): maintained

For `COc1ccc2cc3[n+](cc2c1OCCCOc1ccccc1)CCc1cc2c(cc1-3)OCO2` [Compound 1], which “reduction of the thickness of the bundles of FtsZ protofilaments” value (S. aureus FtsZ [2]; 8.8 µM compound) is on record?
Its value is 60%.

What does the source list for `COc1ccc2cc3[n+](cc2c1OCCCOc1ccc(Cl)cc1)CCc1cc2c(cc1-3)OCO2` [Compound 2]?
inhibition of S. aureus FtsZ polymerization at increasing concentrations (S. aureus FtsZ [1]; 10 µM, 25 µM and 50 µM compound): strongly inhibited the S. aureus FtsZ polymerization in a dose-dependent manner; inhibition at 50 µM (S. aureus FtsZ [1]; 50 µM compound, FtsZ 6 µM, 1 mM GTP, light scattering): ~70%; inhibition of polymerization in the presence of Triton X-100 (S. aureus FtsZ [1]): maintained; reduction of the thickness of the bundles of FtsZ protofilaments (S. aureus FtsZ [2]; 4 µM compound): 70%; cell length of B. subtilis ([3]; 4 h at 37°C, compared to untreated cells): significantly increased; perturbation of the cell membrane (FM 4-64 staining) ([3]; B. subtilis 168, compared to untreated cells): did not induce any detectable perturbation; Z-ring formation / localization of GFP-tagged FtsZ [4]: caused mislocalization of the FtsZ protein
